Assays:
BV-2 = assay: Inhibition of NADPH oxidase in LPS-induced mouse BV2 cells assessed as NOX-dependent ROS production at 50 uM; type: cell-based
[1] = target: T1, Nitric oxide synthase, inducible (Mus musculus, UniProt P29477); assay: Inhibition of iNOS-mediated NO production in LPS-induced mouse BV2 cells; type: cell-based, BV-2
T1 sequence (P29477 whole entry): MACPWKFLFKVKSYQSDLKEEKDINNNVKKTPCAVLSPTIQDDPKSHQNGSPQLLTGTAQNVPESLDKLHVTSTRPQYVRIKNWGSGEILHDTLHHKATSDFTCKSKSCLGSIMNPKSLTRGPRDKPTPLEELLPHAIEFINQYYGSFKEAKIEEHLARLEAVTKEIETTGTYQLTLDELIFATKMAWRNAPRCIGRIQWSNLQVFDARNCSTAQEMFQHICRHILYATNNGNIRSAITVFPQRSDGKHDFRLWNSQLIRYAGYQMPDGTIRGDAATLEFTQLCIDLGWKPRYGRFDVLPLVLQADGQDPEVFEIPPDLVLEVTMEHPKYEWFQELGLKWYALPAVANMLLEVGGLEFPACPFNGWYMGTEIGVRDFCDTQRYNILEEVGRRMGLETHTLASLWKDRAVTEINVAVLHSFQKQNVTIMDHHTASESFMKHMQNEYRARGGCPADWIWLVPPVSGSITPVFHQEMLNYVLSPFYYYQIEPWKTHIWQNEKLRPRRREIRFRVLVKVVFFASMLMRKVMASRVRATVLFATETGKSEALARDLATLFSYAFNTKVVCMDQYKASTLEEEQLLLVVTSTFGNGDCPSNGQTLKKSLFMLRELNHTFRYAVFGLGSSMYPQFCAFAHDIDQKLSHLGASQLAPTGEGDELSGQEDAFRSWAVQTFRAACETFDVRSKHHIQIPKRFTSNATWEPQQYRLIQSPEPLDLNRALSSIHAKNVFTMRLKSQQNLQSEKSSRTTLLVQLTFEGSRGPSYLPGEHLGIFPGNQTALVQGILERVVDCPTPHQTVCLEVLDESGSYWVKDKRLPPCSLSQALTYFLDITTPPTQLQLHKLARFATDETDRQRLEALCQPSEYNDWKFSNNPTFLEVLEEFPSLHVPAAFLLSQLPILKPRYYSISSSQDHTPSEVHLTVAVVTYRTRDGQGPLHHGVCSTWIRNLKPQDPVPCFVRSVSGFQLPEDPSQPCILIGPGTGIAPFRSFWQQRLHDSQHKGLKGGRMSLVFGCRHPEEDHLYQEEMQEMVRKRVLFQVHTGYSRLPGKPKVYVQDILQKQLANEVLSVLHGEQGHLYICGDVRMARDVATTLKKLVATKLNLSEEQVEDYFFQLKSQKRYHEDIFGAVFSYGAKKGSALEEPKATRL

[2] = system: Radical scavenging activity; assay: Antioxidant activity assessed as DPPH radical scavenging activity at 50 uM; type: functional

Row | SMILES | inhibition (BV-2) [%] | IC50 [1] [µM] | Activity [2] [%]
1 | CC[C@H](CC[C@@H](C)[C@H]1CC[C@H]2[C@@H]3[C@@H](O)C=C4C[C@@H](O)CC[C@]4(C)[C@H]3CC[C@]12C)C(C)C | 17.1 | > 50 | –
2 | CC1(C)CC[C@]2(C)CC[C@]3(C)C(=CC[C@@H]4[C@@]5(C)CCC(=O)C(C)(C)[C@@H]5CC[C@]43C)[C@@H]2C1 | 0 | > 50 | –
3 | CC[C@H](CC[C@@H](C)[C@H]1CC[C@H]2[C@@H]3C[C@@H](O)C4=C[C@@H](O)CC[C@]4(C)[C@H]3CC[C@]12C)C(C)C | 1.6 | > 50 | –
4 | CC[C@H](/C=C/[C@@H](C)[C@H]1CC[C@H]2C3=CC[C@H]4C[C@@H](O)CC[C@]4(C)[C@H]3CC[C@]12C)C(C)C | 8.7 | > 50 | –
5 | C[C@@H](O)/C=C/[C@@]1(O)C(C)(C)C[C@H](O)C[C@@]1(C)O | 25.2 | > 50 | –
6 | C[C@@H]1O[C@@H](Oc2c(-c3ccc(O)cc3)oc3cc(O)cc(O)c3c2=O)[C@H](O)[C@H](O)[C@H]1O | 6 | – | –
7 | Cc1c(C)c2c(c(C)c1O)CCC(C)(C(=O)O)O2 (stereo unspecified) | – | – | 85.7
8 | c1ccc2c(c1)[I+]c1ccccc1-2 | 85.1 | – | –
9 | C=CC(C)(C)c1[nH]c2c(CC=C(C)C)cc(CC=C(C)C)cc2c1C[C@@H]1NC(=O)[C@H](C)NC1=O [ECHINULIN] | 8.8 | > 50 | –
10 | C[C@H]1C(=O)CC[C@@H]2[C@]1(C)CC[C@H]1[C@@]2(C)CC[C@@]2(C)[C@@H]3CC(C)(C)CC[C@]3(C)CC[C@]12C [FRIEDELINE] | 4.2 | > 50 | –
11 | O=C(O)c1cc(O)c(O)c(O)c1 [GALLIC ACID] | 21.5 | > 50 | 85.6
12 | CC(=O)O[C@H]1CC[C@@H]2C(=CC[C@H]3[C@@]2(C)CC[C@@]2(C)[C@@H]4CC(C)(C)CC[C@]4(C)CC[C@]32C)C1(C)C [GLUTINOL ACETATE] | 10.8 | > 50 | –
13 | CC1(C)CC[C@]2(C)CC[C@]3(C)[C@H]4CC=C5[C@@H](CC[C@H](O)C5(C)C)[C@]4(C)CC[C@@]3(C)[C@@H]2C1 [GLUTINOL] | 19.2 | > 50 | –
14 | CC1(C)CC[C@]2(C)CC[C@]3(C)[C@H]4CC=C5[C@@H](CCC(=O)C5(C)C)[C@]4(C)CC[C@@]3(C)[C@@H]2C1 [GLUTINONE] | 6.6 | > 50 | –
15 | CO[C@H]1[C@H](O)[C@@H](O)[C@@H](O)[C@H](O)[C@@H]1O [METHYLINOSITOL] | 16.5 | > 50 | –
16 | C[C@@H]1[C@@H](O)CC[C@]2(C)[C@H]3CC/C(=C\C(=O)O)[C@H](C)[C@@H]3[C@@H](O)C(=O)[C@@H]12 [NORERYTHROFORDIN A] | 8.6 | > 50 | –
17 | CC1(C)CC[C@]2(C)CC=C3[C@]4(C)CC[C@H]5C(C)(C)[C@@H](O)CC[C@]5(C)[C@H]4CC[C@@]3(C)[C@@H]2C1 [TARAXEROL] | 11.6 | 24.2 | –
18 | CC1(C)CC[C@]2(C)CC=C3[C@]4(C)CC[C@H]5C(C)(C)C(=O)CC[C@]5(C)[C@H]4CC[C@@]3(C)[C@@H]2C1 [TARAXERONE] | 5.2 | 46.5 | –
19 | CC(=O)O[C@H]1CC[C@]2(C)[C@H]3CC=C4[C@@H]5CC(C)(C)CC[C@]5(C)CC[C@@]4(C)[C@]3(C)CC[C@H]2C1(C)C [beta-AMYRIN ACETATE] | 9.2 | > 50 | –
